{"source": "patent US20240350463A1", "about": "“SMALL MOLECULE COMPOUNDS” (APERTOR PHARMACEUTICALS, INC., priority 2021, published 2024)", "key": {"[1]": {"system": "mTOR activity (phospho-p70S6K)", "assay": "phospho-p70S6K FACS in activated mouse T-cells", "format": "cell-based"}, "[2]": {"system": "CD8 cells isolated from p14 transgenic mice", "assay": "CD8 CTV-labelled proliferation assay", "format": "cell-based, mouse", "conditions": "activated for 72 hours; 10 nM, 100 nM, and 100 μM", "method": "The five analogs and rapamycin were assayed for their effect on proliferation and correlation to p70S6K inhibitory activity. […] The proliferation was measured by FACS. The five analogs were tested at varying concentrations (10 nM, 100 nM, and 100 μM), activated for 72 hours with rapamycin and DMSO treated controls.\nCD8 cells were isolated from p14 transgenic mice, then labelled with CTV. The labelled cells then were activated with plate-bound anti-CD3 (5 μg/mL) and soluble anti-CD28 (2 μg/mL), along with rapamycin, rapamycin analog, or DMSO. After activation of 48 hours and 72 hours, the cells were collected to assay the CVT labelling signal using flow cytometry. All rapamycin analogs decrease proliferation in CD8 cells, with varying potency (FIG. 12)."}, "[3]": {"system": "naïve CD4+ mouse T-cells", "assay": "expansion of CD62L+ memory T-cells (FACS)", "format": "cell-based", "method": "RAP23 was further evaluated by treating naïve CD4+ T-cells at multiple concentrations (1 nM to 1 uM) for expansion of CD62L+ memory T-cells. […] These 5 compounds were identified to have reduced immunosuppression (with improved safety) with maximum and durable expansion of memory T-cells."}, "[4]": {"assay": "stability during semi-preparative HPLC", "format": "physicochemical", "conditions": "approximately one fifth transformed spontaneously to a more nonpolar compound", "method": "To accumulate 35-desmethylrapamycin (RAP35) and 35-desmethyl-27-demethoxyrapamycin (RAP35/27) for characterization and bioactivity assays, a 7.2-L scale of fermentation was conducted. 7.2 L fermentation medium was prepared and aliquoted into eighteen 2 L Erlenmeyer flasks 20 mL of the seed culture was inoculated into each 2 L Erlenmeyer flask, which was then capped with 8-layer gauze. The fermentation was conducted at 28° C., 220 rpm for 4 days. To process the culture, the fermentation broth was centrifuged at 9,000 g for 10 min at room temperature, and the cell pellet was collected and combined. After transferring the cells into a 5 L glass beaker, 2 volumes of acetonitrile were added into 1 volume of the cells. The mixture was stirred vigorously using a magnetic stirrer at room temperature for 1 h. The mixing was halted, and the mixture was allowed to settle under gravity for 30 min. The solvent layer was poured into a 5 L Erlenmeyer flask, and another 2 volumes of acetonitrile was added into the cells for extraction. After three times of extraction in total, the solvent layers were combined and concentrated under reduced pressure. […] The absorbance at 278 nm wavelength was monitored. […]"}, "[5]": {"system": "Treg cells", "assay": "treatment of Treg cells with expander beads", "format": "cell-based", "conditions": "100 nM"}, "[6]": {"system": "conventional T cells", "assay": "culture of conventional T cells with RAP35", "format": "cell-based"}, "[7]": {"system": "naïve CD4+ mouse T cells", "assay": "FACS of naïve CD4+ T cells for CD4+CD25+FOXP3+", "conditions": "1 uM"}}, "data": [{"compound": "CO[C@H]1C[C@@H]2CC[C@@H](C)[C@@](O)(O2)C(=O)C(=O)N2CCCC[C@H]2C(=O)O[C@H]([C@H](C)C[C@@H]2CC[C@@H](O)[C@H](OC)C2)CC(=O)[C@H](C)/C=C(\\C)[C@@H](O)[C@@H](OC)C(=O)[C@H](C)CC/C=C/C=C/C=C/1C", "note": "[RAP23, (3S,6R,7E,9R,10R,12R,15E,17E,19E,21 S,23S,26R,27R,34aS)-9,27-dihydroxy-3-((R)-1-((1S,3R,4R)-4-hydroxy-3-methoxycyclohexyl)propan-2-yl)-10,21-dimethoxy-6,8,12,20,26-pentamethyl-9,10,12,13,14,21,22,23,24,25,26,27,32,33,34,34a-hexadecahydro-3H-23,27-epoxypyrido[2,1-c][1]oxa[4]azacyclohentriacontine-1,5,11,28,29(41H,6H,31H)-pentaone]", "values": [{"measurement": "inhibition of p70S6 high signal", "setting": "[1]; even at 1 uM", "value": "never fully inhibited"}, {"measurement": "proliferation relative to RAP35 and rapamycin", "setting": "[2]", "value": "increased proliferation"}, {"measurement": "generation of memory versus inhibition of proliferation", "setting": "[3]", "value": "promote potent generation of memory without potently inhibiting proliferation"}, {"measurement": "phospho-p70S6K low/CD62L+ high phenotype relative to all doses of rapamycin", "setting": "[3]; 1 nM to 1 uM", "value": "reduced"}, {"measurement": "portion of cells with phospho-p70S6K high/CD62L+ high phenotype", "setting": "[3]; 1 nM to 1 uM", "value": "7-10%"}]}, {"compound": "CO[C@H]1C[C@@H]2CC[C@@H](C)[C@@](O)(O2)C(=O)C(=O)N2CCCC[C@H]2C(=O)O[C@H](CC[C@@H]2CC[C@@H](O)[C@H](OC)C2)CC(=O)[C@H](C)/C=C(\\C)[C@@H](O)CC(=O)[C@H](C)C[C@H](C)/C=C/C=C/C=C/1C", "note": "[RAP35/27A, (3R,6R,7E,9S,12R,14S,5E,17E,19E,21S,23S,26R,27R,34aS)-9,27-dihydroxy-3-(2-((1S,3R,4R)-4-hydroxy-3-methoxycyclohexyl)ethyl)-21-methoxy-6,8,12,14,20,26-hexamethyl-9,10,12,13,14,21,22,23,24,25,26,27,32,33,34,34a-hexadecahydro-3H-23,27-epoxypyrido[2,1-c][1]oxa[4]azacyclohentriacontine-1,5,11,28,29(4H,6H,31H)-pentaone]", "values": [{"measurement": "stability in the process of semi-preparation", "setting": "[4]", "value": "tended to be unstable"}]}, {"compound": "CO[C@H]1C[C@@H]2CC[C@@H](C)[C@@](O)(O2)C(=O)C(=O)N2CCCC[C@H]2C(=O)O[C@H](CC[C@@H]2CC[C@@H](O)[C@H](OC)C2)CC(=O)[C@H](C)/C=C(\\C)[C@@H](O)[C@@H](OC)C(=O)[C@H](C)C[C@H](C)/C=C/C=C/C=C/1C", "note": "[RAP35, (3R,6R,7E,9R,10R,2R,14S,15E,17E,19E,21S,23S,26R,27R,34aS)-9,27-dihydroxy-3-(2-((1S,3R,4R)-4-hydroxy-3-methoxycyclohexyl)ethyl)-10,21-dimethoxy-6,8,12,14,20,26-hexamethyl-9,10,12,13,14,21,22,23,24,25,26,27,32,33,34,34a-hexadecahydro-3H-23,27-epoxypyrido[2,1-c][1]oxa[4]azacyclohentriacontine-1,5,11,28,29(4H,6H,31H)-pentaone]", "values": [{"measurement": "p70S6 high cells", "setting": "[1]; overnight stimulation, therapeutic concentrations (1-200 nM)", "value": "significantly reduced"}, {"measurement": "expression of CCR7", "setting": "[5]", "value": "reduce"}, {"measurement": "expression of CD45RO", "setting": "[5]", "value": "reduce"}, {"measurement": "expression of CXCR3", "setting": "[5]", "value": "reduce"}, {"measurement": "phosphorylation of 4EBP1", "setting": "[5]", "value": "reduce"}, {"measurement": "phosphorylation of S6", "setting": "[5]", "value": "reduce"}, {"measurement": "CCR7 expression", "setting": "[6]", "value": "increased"}, {"measurement": "CD45RO expression", "setting": "[6]", "value": "decreased"}, {"measurement": "level of phosphorylation of 4EBP1 and S6", "setting": "[6]; 100 nM", "value": "mTOR pathway was being targeted"}, {"measurement": "anti-inflammatory effects", "setting": "[6]; Cell Proliferation Dye and phenotypic markers", "value": "promising anti-inflammatory effects"}, {"measurement": "effect on differentiation", "setting": "[7]", "value": "strong effect"}]}]}
